“Also recorded” adds a separate entry of the source.
Experiments:
[1] = tested on: N-type CaV (CaV2.2) current in sensory neurons; conditions: cited from earlier work
[2] = tested on: eEPSCs in the dorsal horn of rat spinal cord; conditions: cited from earlier work
human GABAB receptor = conditions: cited from earlier work
α9α10 nAChRs = conditions: cited from earlier work
[3] = tested on: nAChRs subtypes containing the α3 subunit; conditions: cited from earlier work
[4] = tested on: CaV current in rat sensory neurons (DRG); assay: cells; type: cell-based, rat (adult male Sprague Dawley)
[5] = tested on: GABAB receptors expressed in Xenopus laevis oocytes; conditions: cited from earlier work
rat α9α10 nAChRs = type: cell-based
animal pain models = conditions: in vivo; cited from earlier work

Vc1.1
GABAB dependence of N-type CaV current inhibition [1]: requires functional GABAB receptors | reversibility of CaV current block [1]: irreversible | sensory neurons with CaV current inhibited [1]: ~75% | effect on eEPSCs / EPSPs in dorsal horn [2]: does not affect excitatory neurotransmitter release; also recorded: no inhibition of EPSPs; also recorded: failed to affect | effect on binding of [^3H]CGP-54626, a specific competitive antagonist (human GABAB receptor): failed to block binding; also recorded: Neither Vc1.1 or RgIA were able to prevent the binding | antagonism of α9α10 nAChRs (α9α10 nAChRs): potent antagonists | antagonism of nAChRs containing the α3 subunit [3]: weakly antagonizes | CaV current inhibition in the neuron with the largest Vc1.1 and RgIA response [4]: 41% | CaV current inhibition in the neuron with the largest baclofen response [4]: 3.5% | average CaV current inhibition in neurons with baclofen responses of 20 − 24% [4]: 4.3 ± 6.6% | enhancement of CaV current inhibition by BSA [4]: no enhancement of the CaV current inhibition was observed | inhibition of CaV current in example neuron [4]: 40% | postpulse CaV current inhibition [4]: 6.2 ± 12.5% | prepulse CaV current inhibition [4]: 6.5 ± 12.7% | recovery τ from CaV current block [4]: 0.5 ± 0.2 min | reversibility of CaV current block [4]: readily reversible; also recorded: almost full recovery from inhibition | voltage dependence of CaV current inhibition [4]: not voltage-dependent | average CaV current inhibition (as summarised in discussion) ([4]; 1 µM): 7% | average effect on CaV current (in words) ([4]; 1 µM): only minimal inhibition | neurons responding with CaV current inhibition >10% ([4]; 1 µM): 19% | activation of GABAB receptors [5]: do not activate GABAB receptors; also recorded: failed to activate GABAB receptors | block of ACh-induced current (rat α9α10 nAChRs): 85 ± 13% | antinociceptive / analgesic effect (animal pain models): antinociceptive effects
